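Results reflect a 48-hour exposure of cells in 96-well plates to compound at five concentrations. Abbreviation: GI50, concentration required for 50% inhibition of growth. TGI denotes the concentration required for complete inhibition of growth.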
Key:
Assay in all cases: NCI-60 cell line screen, 48 h
NCI-H226 lung = tested on: NCI-H226 lung
SW-620 colon = tested on: SW-620 colon
K-562 leukemia = tested on: K-562 leukemia
786-0 renal = tested on: 786-0 renal
HOP-62 NSCLC = tested on: HOP-62 NSCLC
SK-MEL-2 melanoma = tested on: SK-MEL-2 melanoma
LOX IMVI melanoma = tested on: LOX IMVI melanoma
HCT-15 colon = tested on: HCT-15 colon
NCI-H460 lung = tested on: NCI-H460 lung
OVCAR-8 ovarian = tested on: OVCAR-8 ovarian

| SMILES | GI50 (NCI-H226 lung) | TGI (NCI-H226 lung) | GI50 (SW-620 colon) | TGI (SW-620 colon) | GI50 (K-562 leukemia) | TGI (K-562 leukemia) | GI50 (786-0 renal) | TGI (786-0 renal) | GI50 (HOP-62 NSCLC) | TGI (HOP-62 NSCLC) | GI50 (SK-MEL-2 melanoma) | TGI (SK-MEL-2 melanoma) | GI50 (LOX IMVI melanoma) | TGI (LOX IMVI melanoma) | GI50 (HCT-15 colon) | TGI (HCT-15 colon) | GI50 (NCI-H460 lung) | TGI (NCI-H460 lung) | GI50 (OVCAR-8 ovarian) | TGI (OVCAR-8 ovarian) |
| --- | --- | --- | --- | --- | --- | --- | --- | --- | --- | --- | --- | --- | --- | --- | --- | --- | --- | --- | --- | --- |
| O=C1C(Cl)=C(Nc2cccc(O)c2)C(=O)N1c1cccc(Cl)c1 | 26 µM | 76.9 µM | 39 µM | > 100 µM | 29.8 µM | 79 µM | 57.8 µM | > 100 µM | 52.7 µM | > 100 µM | 34.7 µM | > 100 µM | 22.4 µM | 51.1 µM | 39.1 µM | > 100 µM | 48.5 µM | > 100 µM | 27.2 µM | > 100 µM |
| CC(=O)NNC(=S)/N=C/c1c(O)cc(C)oc1=O | – | > 100 µM | – | > 100 µM | – | – | – | > 100 µM | – | > 100 µM | – | > 100 µM | – | > 100 µM | – | > 100 µM | – | > 100 µM | – | > 100 µM |
| NCCCn1c2c(c3cc4c(cc3c1=O)OCO4)C(=O)c1ccccc1-2 | 4.09 µM | 24.8 µM | – | – | 0.181 µM | 0.602 µM | 1.49 µM | 2.88 µM | 0.187 µM | 0.729 µM | 2.91 µM | > 70.3 µM | 0.14 µM | > 100 µM | 0.554 µM | 1.94 µM | 2.06 µM | 4.11 µM | 0.142 µM | 1.14 µM |
| COC1CC2C=CC3C4OC2(/C(C)=C/C(C)C(C(C)O)OC1=O)C3C(O)C(C)C4OC(=O)c1ccc[nH]1 (stereo not given) | – | – | – | > 100 µM | – | – | – | > 100 µM | – | > 100 µM | – | > 100 µM | – | > 100 µM | – | > 100 µM | – | > 100 µM | – | > 100 µM |
| Cc1ccc(C(=O)CCC2C(=O)CC(C)(C)CC2=O)cc1 | – | > 100 µM | – | > 100 µM | – | – | – | > 100 µM | – | > 100 µM | – | > 100 µM | – | > 100 µM | – | > 100 µM | – | > 100 µM | – | > 100 µM |
| O=C(N/C(=C\c1ccc([N+](=O)[O-])cc1)c1nc2ccc(Cl)cc2[nH]1)c1ccccc1 | – | – | – | 61.3 µM | – | 52.7 µM | – | 53 µM | – | – | – | 48.1 µM | – | – | – | 31.2 µM | – | – | – | > 100 µM |
| COC1OC(CBr)C(OC(c2ccccc2)(c2ccccc2)c2ccccc2)C(OC(c2ccccc2)(c2ccccc2)c2ccccc2)C1OC(c1ccccc1)(c1ccccc1)c1ccccc1 (stereo not given) | – | 96.3 µM | – | > 100 µM | – | > 100 µM | – | > 100 µM | – | > 100 µM | – | – | – | > 100 µM | – | > 100 µM | – | > 100 µM | – | > 100 µM |
| C[Si](C)(C)/C=C\CCCN1C(=O)CCC1=O | – | – | – | > 100 µM | – | > 100 µM | – | > 100 µM | – | – | – | > 100 µM | – | > 100 µM | – | > 100 µM | – | > 100 µM | – | > 100 µM |
| O=C1NC(=O)C(=O)C(c2nc3ccccc3s2)C1=O | – | > 100 µM | – | > 100 µM | – | – | – | > 100 µM | – | > 100 µM | – | > 100 µM | – | – | – | > 100 µM | – | > 100 µM | – | > 100 µM |
| CN(C)Cc1cccc(CN(C)C)[c]1[Sn]([Br])([c]1ccccc1)[c]1ccccc1 | – | – | 13.5 µM | 29.7 µM | – | – | 14.7 µM | 29 µM | 17.2 µM | 39.5 µM | – | – | 6.25 µM | 20.3 µM | 14.5 µM | 29.4 µM | 13.4 µM | 65.9 µM | 12.4 µM | 26.2 µM |
| N#Cc1nn(C2OC(COC(=O)c3ccccc3)C(OC(=O)c3ccccc3)C2OC(=O)c2ccccc2)c2nc[nH]c(=O)c12 (stereo not given) | – | > 100 µM | – | > 100 µM | – | > 100 µM | – | > 100 µM | – | > 100 µM | – | > 100 µM | – | – | – | > 100 µM | – | > 100 µM | – | > 100 µM |
| COc1ccc(-c2csc(NC(=O)N3CCN(c4cc5c(cc4F)c(=O)c(C(=O)O)cn5C4CC4)CC3)n2)cc1 | 2.95 µM | > 100 µM | 5.04 µM | > 100 µM | 2.71 µM | 14.9 µM | 1.46 µM | 19.6 µM | 3.02 µM | 32.6 µM | 2.42 µM | 7.1 µM | – | – | 2.86 µM | > 100 µM | 1.29 µM | > 100 µM | – | – |
| CC(C(=O)c1ccccc1)C1(O)C(=O)Nc2ccccc21 (stereo not given) | – | > 100 µM | – | > 100 µM | – | > 100 µM | – | > 100 µM | – | > 100 µM | – | > 100 µM | – | > 100 µM | – | > 100 µM | – | > 100 µM | – | – |
| CCOC(=O)CNC1C(NC(C)=O)C(OC)OC2COC(c3ccccc3)OC21 (stereo not given) | – | > 100 µM | – | > 100 µM | – | > 100 µM | – | > 100 µM | – | – | – | > 100 µM | – | > 100 µM | – | > 100 µM | – | > 100 µM | – | > 100 µM |
| CCN(CC)CCOC(=O)/C(=C/c1ccc(OC)cc1)c1cc(OC)c(OC)c(OC)c1 | – | 54.5 µM | – | > 100 µM | – | 27.9 µM | – | 98.8 µM | – | 31.7 µM | – | – | – | 18.6 µM | – | > 100 µM | – | 51.2 µM | – | 74.2 µM |
| COc1cc2ccc(/C(C)=N/OC(C)=O)cc2cc1OC | – | > 100 µM | – | > 100 µM | – | > 100 µM | – | > 100 µM | – | – | – | > 100 µM | – | > 100 µM | – | > 100 µM | – | > 100 µM | – | > 100 µM |
| Cc1[nH]c2ccccc2c1C1CC(=O)NC1=O (stereo not given) | – | > 100 µM | – | > 100 µM | – | > 100 µM | – | > 100 µM | – | > 100 µM | – | > 100 µM | – | – | – | > 100 µM | – | > 100 µM | – | > 100 µM |
| COc1cc2c(=O)n(CCCn3ccnc3)c3c4cc5c(cc4ccc3c2cc1OC)OCO5 | 0.246 µM | > 100 µM | 0.49 µM | > 100 µM | 0.669 µM | > 100 µM | 1.93 µM | > 100 µM | 0.305 µM | 5.37 µM | 8.06 µM | > 83.8 µM | – | – | 1.17 µM | > 100 µM | 0.293 µM | > 100 µM | 1.46 µM | 41.9 µM |
| CC([C@H]1CCC2C3CCC4CC5(CC[C@]4(C)C3CC[C@@]21C)c1ccccc1C(=O)N5C)N(C)C (stereo not given in full) | – | – | – | > 100 µM | – | 92.2 µM | – | 29.8 µM | – | > 100 µM | – | 42.9 µM | – | 4.21 µM | – | > 100 µM | – | > 100 µM | – | > 100 µM |
| O=S1c2ccccc2N=C(c2ccc(Cl)cc2)CC1c1cccs1 (stereo not given) | – | > 100 µM | – | 27.5 µM | – | 61 µM | – | 28.2 µM | – | > 100 µM | – | – | – | 25.9 µM | – | 29.1 µM | – | > 100 µM | – | 38.4 µM |
